PMC2824011 (Analytical biochemistry, 2009)

Tests used:
[1] = biological target: T1, Golgi α-mannosidase II (dGMII) (Drosophila melanogaster, UniProt Q24451); assay: continuous fluorometric enzyme assay with Res-Man substrate, pH […]; assay type: biochemical
T1 sequence (Q24451 76-1108): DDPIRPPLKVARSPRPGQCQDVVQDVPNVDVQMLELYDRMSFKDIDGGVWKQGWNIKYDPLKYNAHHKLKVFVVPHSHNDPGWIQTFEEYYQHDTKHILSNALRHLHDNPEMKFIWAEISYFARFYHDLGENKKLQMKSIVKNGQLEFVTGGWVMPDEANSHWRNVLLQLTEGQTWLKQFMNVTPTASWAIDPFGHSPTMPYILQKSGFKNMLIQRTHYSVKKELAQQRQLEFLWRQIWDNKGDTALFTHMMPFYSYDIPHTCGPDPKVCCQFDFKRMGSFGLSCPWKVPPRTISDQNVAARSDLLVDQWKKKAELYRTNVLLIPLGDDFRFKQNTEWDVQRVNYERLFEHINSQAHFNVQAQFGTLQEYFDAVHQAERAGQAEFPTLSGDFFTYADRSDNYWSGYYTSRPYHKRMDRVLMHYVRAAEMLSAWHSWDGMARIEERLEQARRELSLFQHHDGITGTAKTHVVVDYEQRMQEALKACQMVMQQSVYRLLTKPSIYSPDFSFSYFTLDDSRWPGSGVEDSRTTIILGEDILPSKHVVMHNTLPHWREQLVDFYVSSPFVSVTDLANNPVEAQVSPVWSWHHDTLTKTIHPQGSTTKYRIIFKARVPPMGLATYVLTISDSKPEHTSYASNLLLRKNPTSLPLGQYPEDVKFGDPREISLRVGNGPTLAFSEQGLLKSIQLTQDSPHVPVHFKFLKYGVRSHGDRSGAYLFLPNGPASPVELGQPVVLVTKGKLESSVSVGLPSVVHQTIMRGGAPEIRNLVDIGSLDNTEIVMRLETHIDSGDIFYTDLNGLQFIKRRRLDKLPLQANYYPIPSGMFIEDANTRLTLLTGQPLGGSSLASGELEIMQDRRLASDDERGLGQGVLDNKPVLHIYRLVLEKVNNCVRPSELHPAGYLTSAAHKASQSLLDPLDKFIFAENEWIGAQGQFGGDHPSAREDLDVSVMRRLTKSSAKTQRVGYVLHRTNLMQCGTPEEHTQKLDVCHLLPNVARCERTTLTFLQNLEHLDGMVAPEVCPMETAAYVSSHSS

[2] = biological target: T2, human lysosomal mannosidase (HLM) (Homo sapiens, UniProt O00754); assay: continuous fluorometric turnover assay of purified enzyme, pH […]; assay type: biochemical
T2 sequence (O00754 50-1011): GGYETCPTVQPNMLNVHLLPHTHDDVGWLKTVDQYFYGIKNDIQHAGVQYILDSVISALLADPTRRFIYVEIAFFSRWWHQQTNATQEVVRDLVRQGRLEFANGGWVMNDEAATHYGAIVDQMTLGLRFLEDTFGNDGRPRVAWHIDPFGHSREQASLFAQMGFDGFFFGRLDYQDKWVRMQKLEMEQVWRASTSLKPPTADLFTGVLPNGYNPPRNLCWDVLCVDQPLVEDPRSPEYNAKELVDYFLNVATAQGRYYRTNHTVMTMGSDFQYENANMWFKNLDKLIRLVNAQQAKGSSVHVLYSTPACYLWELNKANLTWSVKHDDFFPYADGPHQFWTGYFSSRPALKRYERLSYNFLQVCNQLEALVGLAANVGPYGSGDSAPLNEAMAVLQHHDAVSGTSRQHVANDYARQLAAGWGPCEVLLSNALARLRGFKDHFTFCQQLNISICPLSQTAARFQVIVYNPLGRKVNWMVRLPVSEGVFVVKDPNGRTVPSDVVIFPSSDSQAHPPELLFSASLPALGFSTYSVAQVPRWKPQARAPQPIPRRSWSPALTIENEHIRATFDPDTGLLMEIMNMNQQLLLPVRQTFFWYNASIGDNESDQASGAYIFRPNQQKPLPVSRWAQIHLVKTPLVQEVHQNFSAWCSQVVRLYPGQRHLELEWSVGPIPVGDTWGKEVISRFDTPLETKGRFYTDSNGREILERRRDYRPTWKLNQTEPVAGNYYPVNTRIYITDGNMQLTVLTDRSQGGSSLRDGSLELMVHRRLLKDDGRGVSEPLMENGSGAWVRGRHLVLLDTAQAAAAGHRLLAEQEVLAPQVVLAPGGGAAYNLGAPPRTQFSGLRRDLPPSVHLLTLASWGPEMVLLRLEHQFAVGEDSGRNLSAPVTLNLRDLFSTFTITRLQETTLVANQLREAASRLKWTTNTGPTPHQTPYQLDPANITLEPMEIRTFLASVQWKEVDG

Compound | Ki [1] [nM] | continuous fluorometric turnover assay of purified enzyme, pH 6.0 [2]
O[C@H]1[C@H]2[C@H](O)CCCN2C[C@H]1O [swainsonine] | 44.7 | –
O=c1ccc2nc3ccc(O[C@H]4O[C@H](CO)[C@@H](O)[C@H](O)[C@@H]4O)cc3oc-2c1 [Res-Man, resorufin α-D-mannopyranoside] | – | recombinant human lysosomal mannosidase (HLM) (◊) using the substrate resorufin-α-D-mannopyranoside (Res-Man)
